Assay results from ChEMBL document CHEMBL1142685, “Novel anticholinesterases based on the molecular skeletons of furobenzofuran and methanobenzodioxepine” (J Med Chem, 2005).

What was measured:
Cholinesterase = Cholinesterase (Homo sapiens, UniProt P06276)
Description: Inhibitory concentration against human plasma Butyrylcholinesterase

Acetylcholinesterase = Acetylcholinesterase (Homo sapiens, UniProt P22303)
Description: Inhibitory concentration against human erythrocyte Acetylcholinesterase

SK-N-SH = experiment: Reduction in Amyloid-beta precursor protein levels in Human SK-N-SH cells at 10 uM; format: functional

Chain of Cholinesterase (P06276 whole entry): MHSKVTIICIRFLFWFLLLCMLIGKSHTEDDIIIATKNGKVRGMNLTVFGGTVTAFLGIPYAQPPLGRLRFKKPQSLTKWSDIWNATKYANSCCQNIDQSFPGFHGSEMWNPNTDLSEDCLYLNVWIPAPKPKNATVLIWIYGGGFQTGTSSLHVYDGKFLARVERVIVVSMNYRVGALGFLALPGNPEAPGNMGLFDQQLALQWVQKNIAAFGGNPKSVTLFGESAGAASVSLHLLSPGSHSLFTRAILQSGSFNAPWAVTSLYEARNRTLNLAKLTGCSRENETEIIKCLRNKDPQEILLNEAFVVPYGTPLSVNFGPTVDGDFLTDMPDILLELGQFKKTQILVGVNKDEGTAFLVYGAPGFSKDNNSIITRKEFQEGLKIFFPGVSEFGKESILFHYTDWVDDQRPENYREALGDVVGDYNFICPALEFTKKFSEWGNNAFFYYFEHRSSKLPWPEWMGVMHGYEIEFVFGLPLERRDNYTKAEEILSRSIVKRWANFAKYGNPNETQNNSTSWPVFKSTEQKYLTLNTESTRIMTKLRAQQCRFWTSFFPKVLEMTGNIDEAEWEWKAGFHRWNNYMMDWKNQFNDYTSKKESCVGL
Chain of Acetylcholinesterase (P22303 whole entry): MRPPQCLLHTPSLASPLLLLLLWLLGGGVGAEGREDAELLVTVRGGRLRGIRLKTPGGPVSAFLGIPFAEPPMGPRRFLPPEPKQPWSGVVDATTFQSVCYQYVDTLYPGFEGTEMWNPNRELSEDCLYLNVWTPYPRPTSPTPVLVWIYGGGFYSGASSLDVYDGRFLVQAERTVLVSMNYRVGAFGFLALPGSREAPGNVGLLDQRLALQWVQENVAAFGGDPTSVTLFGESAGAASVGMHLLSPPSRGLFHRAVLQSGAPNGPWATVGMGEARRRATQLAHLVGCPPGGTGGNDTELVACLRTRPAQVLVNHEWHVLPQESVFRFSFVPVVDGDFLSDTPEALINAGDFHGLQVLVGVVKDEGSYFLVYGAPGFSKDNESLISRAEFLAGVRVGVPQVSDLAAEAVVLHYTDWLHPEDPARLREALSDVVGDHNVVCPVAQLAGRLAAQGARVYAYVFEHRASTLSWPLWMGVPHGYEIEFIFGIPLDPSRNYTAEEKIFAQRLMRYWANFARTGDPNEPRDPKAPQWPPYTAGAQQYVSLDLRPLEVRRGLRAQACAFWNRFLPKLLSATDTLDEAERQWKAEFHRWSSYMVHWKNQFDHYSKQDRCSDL

CC(C)c1ccc(NC(=O)Oc2ccc3c(c2)[C@]2(C)CCOC2N3C)cc1 (some centres not stated) was tested, and the IC50 (Cholinesterase) was 17 nM and the IC50 (Acetylcholinesterase) was 3860 nM.

Cc1ccccc1NC(=O)Oc1ccc2c(c1)C1(C)COC(C1)O2 (configuration not stated) gave an IC50 (Cholinesterase) greater than 30000 nM and an IC50 (Acetylcholinesterase) of 56 nM.

Cc1ccccc1NC(=O)Oc1ccc2c(c1)C1(C)CCOC1O2 (configuration not stated) showed an IC50 (Cholinesterase) greater than 30000 nM.

CC(C)c1ccc(NC(=O)Oc2ccc3c(c2)C2(C)COC(C2)O3)cc1 (configuration not stated) was tested, and the IC50 (Cholinesterase) was 22 nM and the IC50 (Acetylcholinesterase) was 4300 nM.

CC(C)c1ccc(NC(=O)Oc2ccc3c(c2)C2(C)CCOC2O3)cc1 (configuration not stated) was tested, and the IC50 (Cholinesterase) was 27 nM.

Compound CCNC(=O)Oc1ccc2c(c1)[C@]1(C)CCN(C)C1N2C (some centres not stated) has an IC50 (Cholinesterase) of 4 nM and an IC50 (Acetylcholinesterase) of 94 nM.

Cc1ccccc1NC(=O)Oc1ccc2c(c1)[C@]1(C)CCOC1N2C (some centres not stated) gave an IC50 (Cholinesterase) of 1560 nM and an IC50 (Acetylcholinesterase) of 13 nM.

With CNC(=O)Oc1ccc2c(c1)[C@]1(C)CCOC1N2C (some centres not stated) the IC50 (Cholinesterase) was 4 nM and the IC50 (Acetylcholinesterase) was 27 nM.

Work on CCNC(=O)Oc1ccc2c(c1)C1(C)COC(C1)O2 (configuration not stated) yielded an IC50 (Cholinesterase) of 24 nM.

With CCNC(=O)Oc1ccc2c(c1)[C@]1(C)CCOC1N2C (some centres not stated) the IC50 (Cholinesterase) was 2 nM and the IC50 (Acetylcholinesterase) was 82 nM.

CCNC(=O)Oc1ccc2c(c1)C1(C)CCOC1O2 (configuration not stated) gave an IC50 (Cholinesterase) of 6 nM and an IC50 (Acetylcholinesterase) of 360 nM.

In the case of CCc1ccccc1NC(=O)Oc1ccc2c(c1)[C@]1(C)CC[N+](C)([O-])[C@@H]1N2C (some centres not stated), the IC50 (Cholinesterase) is reported as 1700 nM and the IC50 (Acetylcholinesterase) is reported as 125 nM.

In the case of CN1CC[C@@]2(C)c3cc(OC(=O)Nc4ccccc4)ccc3N(C)[C@@H]12 [PHENSERINE], the Reduction (SK-N-SH) is reported as 50%.
